Earlier results, collected in patent publication US8846084B2, “Controlled release compositions containing zolpidem” (Wockhardt Ltd, priority 2005, dated 2014).

Molecular target: T1, (BZ)1 receptor (Homo sapiens, UniProt P14867+P18507)
T1 sequence (P14867 28-456): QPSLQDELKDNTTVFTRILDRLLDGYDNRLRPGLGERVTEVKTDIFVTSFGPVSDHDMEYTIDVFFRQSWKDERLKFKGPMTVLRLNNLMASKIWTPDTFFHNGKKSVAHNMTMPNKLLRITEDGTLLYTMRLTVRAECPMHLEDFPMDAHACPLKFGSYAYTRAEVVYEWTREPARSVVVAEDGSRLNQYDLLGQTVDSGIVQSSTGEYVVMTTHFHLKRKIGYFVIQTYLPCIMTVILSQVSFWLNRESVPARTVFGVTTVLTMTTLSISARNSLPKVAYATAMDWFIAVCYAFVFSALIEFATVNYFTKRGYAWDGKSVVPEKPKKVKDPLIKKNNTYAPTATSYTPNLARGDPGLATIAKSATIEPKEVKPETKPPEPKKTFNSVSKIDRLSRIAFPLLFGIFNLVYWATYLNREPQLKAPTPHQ
T1 sequence (P18507 40-467 limits assumed): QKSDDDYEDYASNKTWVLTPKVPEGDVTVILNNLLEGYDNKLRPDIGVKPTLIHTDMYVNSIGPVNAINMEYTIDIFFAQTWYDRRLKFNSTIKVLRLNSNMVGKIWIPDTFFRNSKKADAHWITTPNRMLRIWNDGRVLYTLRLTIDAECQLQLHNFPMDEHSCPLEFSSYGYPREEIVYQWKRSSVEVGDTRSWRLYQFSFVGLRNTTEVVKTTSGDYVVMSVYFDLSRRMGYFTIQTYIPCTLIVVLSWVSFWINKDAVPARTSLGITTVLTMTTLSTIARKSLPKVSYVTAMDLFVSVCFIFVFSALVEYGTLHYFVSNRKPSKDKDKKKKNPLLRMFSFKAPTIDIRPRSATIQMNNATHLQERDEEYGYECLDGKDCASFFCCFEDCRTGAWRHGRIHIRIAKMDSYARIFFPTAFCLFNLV
T1 sequence (P47870 25-512 partner limits assumed): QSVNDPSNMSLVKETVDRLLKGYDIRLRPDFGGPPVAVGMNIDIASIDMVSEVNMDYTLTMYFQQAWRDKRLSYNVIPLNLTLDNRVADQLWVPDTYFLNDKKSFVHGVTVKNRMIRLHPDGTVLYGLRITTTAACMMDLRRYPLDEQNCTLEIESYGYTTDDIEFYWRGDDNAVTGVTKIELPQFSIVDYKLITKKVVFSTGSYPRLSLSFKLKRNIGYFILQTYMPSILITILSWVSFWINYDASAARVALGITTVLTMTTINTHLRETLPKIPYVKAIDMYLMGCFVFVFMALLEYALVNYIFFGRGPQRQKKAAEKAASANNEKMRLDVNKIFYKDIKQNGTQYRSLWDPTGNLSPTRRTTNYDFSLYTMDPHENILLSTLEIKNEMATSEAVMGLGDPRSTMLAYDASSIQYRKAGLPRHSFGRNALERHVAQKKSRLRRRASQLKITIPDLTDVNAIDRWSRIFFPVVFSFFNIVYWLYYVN
Details: in vitro; affinity ratio of the α1-subunits/α5-subunits

Cc1ccc(-c2nc3ccc(C)cn3c2CC(=O)N(C)C)cc1 [zolpidem, N,N,6-trimethyl-2-p-tolylimidazo[1,2-a]pyridine-3-acetamide]
receptor subtype binding preference: binds the (BZ)1 receptor preferentially with a high affinity ratio
